Experimental data as given in patent US8993527B2, “Methods, compositions, and formulations for preventing or reducing adverse effects in a patient” (Pericor Therapeutics, Inc., priority 2005, dated 2015).
Where a name gives a salt, the structure may show the parent alone.

Experiments:
[1] = target: T1, NBTI-specific adenosine transport site (UniProt O54698); experiment: [3H]-NBTI binding assay; details: read-out: ED50 (50% displacement of bound [3H]-NBTI); 0.5 mg neuronal membrane protein, 0.5 nM [3H]-NBTI, 30 minutes
T1 sequence (O54698 1-457): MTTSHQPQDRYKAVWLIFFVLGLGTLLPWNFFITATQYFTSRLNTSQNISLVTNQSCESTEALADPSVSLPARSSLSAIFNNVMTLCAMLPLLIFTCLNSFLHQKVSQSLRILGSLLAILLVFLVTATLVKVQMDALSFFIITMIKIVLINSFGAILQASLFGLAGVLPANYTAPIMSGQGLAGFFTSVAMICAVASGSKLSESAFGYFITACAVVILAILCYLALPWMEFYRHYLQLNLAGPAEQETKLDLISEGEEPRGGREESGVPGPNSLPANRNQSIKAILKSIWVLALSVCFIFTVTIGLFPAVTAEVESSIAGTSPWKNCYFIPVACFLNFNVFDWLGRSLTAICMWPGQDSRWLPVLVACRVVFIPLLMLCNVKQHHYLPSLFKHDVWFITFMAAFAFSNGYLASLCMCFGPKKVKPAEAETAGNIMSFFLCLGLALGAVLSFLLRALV
Experimental: Increasing concentrations of the test compounds were incubated for 30 minutes with 0.5 mg neuronal membrane protein together with 0.5 nM [^3 H]-NBTI in a Tris buffer (pH 7.4) at room temperature. The assays were quenched and membranes collected by rapid filtration. Filters were then solubilized and radioactivity determined by scintillation counting.

[2] = system: longitudinal muscle from the guinea pig ileum; experiment: Inhibition of stimulated contraction in isolated ileum; details: electrically stimulated guinea pig ileum muscle
From the text: These are detailed in Table II.

[3] = system: coronary endothelial cells; experiment: Inhibition of adenosine utilization in cell culture; type: cell-based; details: 1 μM [3H] adenosine, 15 minutes; for inhibition at 5 µM / inhibition at 50 µM: Endothelial cell
Experimental: In this assay, endothelial cells were incubated with 5 μM or 50 μM of the test compound together with 1 μM [^3H] adenosine for 15 minutes. Inhibition of adenosine utilization was determined by measuring the concentration of extracellular adenosine by scintillation counting following separation by thin layer chromatography (TLC).

Compound “5-Amino-4-[1-[4-(4-nitrophenyl)]piperazinocarbamoyl]-1-1-β-D-ribofurano sylimidazole [Compound No. 60 (1-508)]” has an EC50 [1] of 17 µM.

`CN(C)c1ccc(CNC(=O)c2ncn([C@@H]3O[C@H](CO)[C@@H](O)[C@H]3O)c2N)cc1` [41 (1-396), 5-Amino-1-β-D-ribofuranosylimidazole-4-N(4-dimethylaminobenzyl)-carboxamide hydrochloride] showed an IC50 [2] of 100 µM.

For `Nc1c(C(=O)NC[C@H](O)c2ccc(O)c(O)c2)ncn1[C@@H]1O[C@H](CO)[C@@H](O)[C@H]1O` [42 (1-431), (R)-5-Amino-1-β-D-ribofuranosylimidazole-4-N-[2-hydroxy-2-(3,4-dihydroxyphenyl)ethyl]carboxamide], the IC50 [2] was 6 µM.

`Nc1c(C(=O)NCc2ccc([N+](=O)[O-])cc2)ncn1C1OC(CI)C(O)C1O` [46 (1-445), 5-Amino-1-(5-iodo-5-deoxy-β-D-ribofuranosyl)imidazole-4-N-[(4-nitrophenyl)methyl]carboxamide] was tested, and the inhibition at 5 µM ([3]; 5 μM) was 19 ± 4%, the inhibition at 50 µM ([3]; 50 μM) was 30 ± 9% and the EC50 [1] was 8 µM.

Work on `CC(NC(=O)c1ncn(C2OC(CO)C(O)C2O)c1N)c1ccc([N+](=O)[O-])cc1` [49 (1-453), (R)-5-Amino-1-β-D-ribofuranosylimidazole 4-N-[1-4-nitrophenyl)ethyl]carboxamide] yielded an inhibition at 5 µM ([3]; 5 μM) of 30 ± 4%, an inhibition at 50 µM ([3]; 50 μM) of 33 ± 8% and an EC50 [1] of 7 µM.

Compound `CC(NC(=O)c1ncn(C2OC(CO)C(O)C2O)c1N)c1ccc([N+](=O)[O-])cc1` [50 (1-459), (S)-5-Amino-1-β-D-ribofuranosylimidazole-4-N-[(4-nitrophenyl)ethyl]carboxamide] has an EC50 [1] of 28 µM.

`Nc1c(C(=O)NCc2cccc(Cl)c2)ncn1[C@H]1O[C@H](CO)[C@@H](O)[C@H]1O` [Compound No. 24 (1-354), 5-Amino-1-α-D-ribofuranosylimidazole-4-N-[(3-chlorophenyl)methyl]carboxamide] was tested, and the IC50 [2] was 400 µM.

In the case of `NC(=O)c1ncn([C@@H]2O[C@H](CCl)[C@@H](O)[C@H]2O)c1N` [Compound No. 26 (1-332), 5-amino-1-(5-chloro-5-deoxy-β-D-ribofuranosyl)imidazole-4-carboxamide], the IC50 ([2]; Cavia porcellus) is reported as 200 µM.

`Nc1c(C(=O)NCc2cccc(Cl)c2)ncn1C1OC(CO)C(O)C1O` [Compound No. 35 (1-355), 5-amino-1-β-D-ribofuranosyl-imidazole-4-N[(3-chlorophenyl)methyl]carboxamide] was tested, and the IC50 ([2]; Cavia porcellus) was 60 µM.

Compound `Nc1c(C(=O)NCc2cccc(I)c2)ncn1C1OC(CO)C(O)C1O` [Compound No. 44 (1-434), 5-Amino 1-β-D-ribofuranosyl-imidazole-4-N-[(3-iodophenyl)methyl]carboxamide] has an IC50 ([2]; Cavia porcellus) of 20 µM.

Work on `Nc1c(C(=O)N2CCc3ccccc32)ncn1C1OC(CO)C(O)C1O` [Compound No. 48 (1-452), 5-Amino-1-β-D-ribofuranosyl-imidazole-4-N-indolinylcarboxamide] yielded an inhibition at 5 µM ([3]; 5 μM) of 23 ± 3%, an inhibition at 50 µM ([3]; 50 μM) of 25 ± 2% and an EC50 [1] of 22 µM.

In the case of `CSC[C@H]1O[C@@H](n2cnc(C(N)=O)c2N)[C@H](O)[C@@H]1O` [Compound No. 54 (1-483), 5-Amino-1-(5-deoxy-5-methylthio-β-D-ribofuranosyl)imidazole-4-carboxamide], the EC50 [1] is reported as 28 µM.

Work on `Nc1c(C(=O)Nc2ccc([N+](=O)[O-])cc2)ncn1C1OC(CO)C(O)C1O` [Compound No. 58 (1-489), 5-Amino-1-β-D-ribofuranosylimidazole-4-N-(4-nitrophenyl)carboxamide] yielded an EC50 [1] of 80 µM.

For `Nc1c(C(=O)NCCCc2ccc([N+](=O)[O-])cc2)ncn1[C@@H]1O[C@H](CO)[C@@H](O)[C@H]1O` [Compound No. 73 (1-566)], the “Inhibition of Adenosine Utilization (%)” value ([3]; 5 μM) was 16 ± 0% and the “Inhibition of Adenosine Utilization (%)” value ([3]; 50 μM) was 33 ± 9%.

`Nc1c(C(=O)NCc2ccc(S(N)(=O)=O)cc2)ncn1[C@@H]1O[C@H](CO)[C@@H](O)[C@H]1O` [Compound No. 75 (1-577), 5-Amino-1-β-D-ribofuranosylimidazole-4-N-[(4-sulfamoylphenyl)methyl]carboxamide] was tested, and the “Inhibition of Adenosine Utilization (%)” value ([3]; 5 μM) was 8 ± 0% and the “Inhibition of Adenosine Utilization (%)” value ([3]; 50 μM) was 30 ± 3%.
